Data on 2 compounds can be found in patent US20060276416A1, “Methods and compositions for treating flushing and drug induced weight gain” (Sirtris Pharmaceuticals, Inc., priority 2005, published 2006).

In one data set the test system is HeLa S3 cells. As to the kind of experiment: Cellular deacetylase assay (TSA-insensitive FdL deacetylation). It is filed as cell-based, human. The following applies: 500 μM compound, 200 μM FdL, 1 μM TSA, 1 hour. On the procedure: FdL (200 μM) is added to growth media and cells incubated for 1-3 hours to allow FdL to enter the cells and the lysine-deacetylated product (deAc-FdL) to accumulate intracellularly. Cells are lysed with detergent in the presence of 1 μM TSA, 1 mM nicotinamide. Addition of the non-cell-permeable Developer (BIOMOL) releases a fluorophor, specifically from deAc-FdL. b, SIRT1 activating polyphenols can stimulate TSA-insensitive, FdL deacetylation by HeLa S3 cells. Cells were grown adherently in DMEM/10% FCS and treated for 1 hour with 200 μM FdL, 1 μM TSA and either vehicle (0.5% final DMSO, Control) or 500 μM of the indicated compound. Intracellular accumulation of deAc-FdL was then determined as described briefly in a. […] Lysates were prepared and analyzed as above. […]
Themed compound libraries (BIOMOL) were used for primary and secondary screening. […] In vitro fluorescence assay results were read in white ½-volume 96-well microplates (Corning Costar 3693) with a CytoFluor™ II fluorescence plate reader (PerSeptive Biosystems, Ex. 360 nm, Em. 460 nm, gain=85). HeLa cells were grown and the cellular deacetylation assays were performed and read, as above, but in full-volume 96-well microplates (Corning Costar 3595). […]

The next data set relates to C. elegans. As to the kind of experiment: C. elegans fat accumulation, Nile Red staining. The data set is classed as in vivo. To be noted: 100 μM. On the procedure: Fat accumulation was visualized with Nile Red staining, as described further below and in Ashrafi K, et al. Nature 421:268-27 (2003).
Synchronized starved L1 worms were grown in the presence of Nile Red. Strains were grown on NGM plates at 25° C. for approximately 48 hours until the young adult stage was reached. 20-30 young adult worms were then washed 2× with M9 buffer and transferred to new NGM/Nile red experimental plates that contained either OP50 or HTT5 E. coli carrying the L4440 RNAi control vector.
Young adults were transferred to plates containing the appropriate vector, Nile Red stain and drug then maintained at 25° C.
Nile Red: Nile Red Powder (Sigma #N-3013) was dissolved in acetone at 500 μg/ml, diluted in 1× Phosphate Buffered Saline (PBS) including appropriate drug and applied to surface of Nematode Growth Media (NGM) plates previously seeded with OP50 or RNAi bacteria, at a final concentration of 0.05 μg/ml. Fat content was monitored and recorded by fluorescence microscopy.

The target of the next data set is T1, recombinant human SIRT1 (Homo sapiens, UniProt Q96EB6).
T1 sequence (Q96EB6 1-747): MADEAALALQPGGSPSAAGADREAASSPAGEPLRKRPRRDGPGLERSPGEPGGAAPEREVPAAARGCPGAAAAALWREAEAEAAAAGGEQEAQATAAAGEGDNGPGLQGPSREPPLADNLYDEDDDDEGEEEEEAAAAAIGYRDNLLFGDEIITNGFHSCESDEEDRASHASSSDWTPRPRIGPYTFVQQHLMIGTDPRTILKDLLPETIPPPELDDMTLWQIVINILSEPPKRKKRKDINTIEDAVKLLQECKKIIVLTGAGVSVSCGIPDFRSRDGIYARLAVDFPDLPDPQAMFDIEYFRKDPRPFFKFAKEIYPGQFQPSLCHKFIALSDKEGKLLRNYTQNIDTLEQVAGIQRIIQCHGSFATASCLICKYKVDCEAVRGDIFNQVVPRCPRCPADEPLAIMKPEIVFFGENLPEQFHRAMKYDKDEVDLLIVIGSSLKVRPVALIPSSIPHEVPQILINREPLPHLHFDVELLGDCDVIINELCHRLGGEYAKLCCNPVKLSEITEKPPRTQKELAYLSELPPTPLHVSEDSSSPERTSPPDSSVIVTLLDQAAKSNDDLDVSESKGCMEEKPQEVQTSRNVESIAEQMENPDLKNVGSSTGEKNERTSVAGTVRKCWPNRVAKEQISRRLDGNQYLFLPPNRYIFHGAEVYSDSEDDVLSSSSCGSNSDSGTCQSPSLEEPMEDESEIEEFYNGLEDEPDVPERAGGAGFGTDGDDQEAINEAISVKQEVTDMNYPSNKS
The data set is described as follows: SIRT1 fluorescent deacetylation assay (p53-382 acetylated peptide). It is filed as biochemical.

For a further data set, the system named is Human 293. The data set is described as follows: Survival of 293 cells (Coulter counter). It is filed as cell-based. To be noted: 50 micromolar. The source says:
The number of live cells each time point was counted using a Coulter counter.

Structures are written as SMILES.

Method for recombinant human SIRT1: To identify compounds that modulate SIRT1 activity, a number of small molecule libraries were screened using a fluorescent deacetylation assay in 96-well plates^26. The substrate used in the assay was a fluorogenic peptide based on the sequence encompassing the p53-K382 acetylation site, a known target of SIRT1 in vivo^20,21,27. […] The small molecule libraries included analogues of nicotinamide, ε-acetyl lysine, NAD^+, nucleotides, nucleotide analogues and purinergic ligands.
From 0.1 to 1 μg of SIRT1 and 1.5 μg of Sir2 were used per deacetylation assay (in 50 μl total reaction) as previously described^26. SIRT1 assays and certain of those for Sir2 employed the p53-382 acetylated substrate (‘Fluor de Lys-SIRT1’, BIOMOL) rather than FdL.
Themed compound libraries (BIOMOL) were used for primary and secondary screening. Most polyphenol compounds were dissolved at 10 mM in dimethylsulfoxide (DMSO) on the day of the assay. For water soluble compounds and negative controls, 1% v/v DMSO was added to the assay. In vitro fluorescence assay results were read in white ½-volume 96-well microplates (Corning Costar 3693) with a CytoFluor™ II fluorescence plate reader (PerSeptive Biosystems, Ex. 360 nm, Em. 460 nm, gain=85). […] Unless otherwise indicated all initial rate measurements were means of three or more replicates, obtained with single incubation times, at which point 5% or less of the substrate initially present had been deacetylated. Calculation of net fluorescence increases included subtraction of a blank value, which in the case of Sir2 was obtained by omitting the enzyme from the reaction and in the case of SIRT1 by adding an inhibitor (200 μM suramin or 1 mM nicotinamide) to the reaction prior to the acetylated substrate. A number of the polyphenols partially quenched the fluorescence produced in the assay and correction factors were obtained by determining the fluorescence increase due to a 3 μM spike of an FdL deacetylated standard (BIOMOL, catalog number KI-142). All error bars represent the standard error of the mean.
All SIRT1 rate measurements used in the calculation of “Ratio to Control Rate” were obtained with 25 μM NAD^+ and 25 μM p53-382 acetylated peptide substrate were performed as described above and in K. T. Howitz et al. Nature (2003) 425: 191. All ratio data were calculated from experiments in which the total deacetylation in the control reaction was 0.25-1.25 μM peptide or 1-5% of the initial concentration of acetylated peptide.

Regarding `O=C(/C=C/c1ccc(O)c(O)c1)c1ccc(O)cc1O` [butein, 3,4,2′,4′-Tetrahydroxychalcone], in the data set with HeLa S3 cells, the “Effect on the cellular (TSA-insensitive) deacetylation signal” value was “no effect”. In addition, the Fat mobilization result in the data set on C. elegans (48 hours) is reported as “stimulate fat mobilization”.
With `CSc1ccc(/C=C/c2cc(O)cc(O)c2)cc1` [BML-230, 3,5-dihydroxy-4′-thiomethyl-trans-stilbene], at recombinant human SIRT1 (R at 500 μM), the “v1/v2 (rate for pure SIRT1/BML-230 divided by that for pure SIRT1/resveratrol)” value is reported as at most 1.4. Further, the “Stimulated SIRT1 activity compared with resveratrol” value on recombinant human SIRT1 (all concentrations tested, 25 μM NAD+ and p53-382 peptide, 20 minutes) is reported as “exceeds”. Further, the “Dissociation constant of SIRT1 complex compared with SIRT1/resveratrol” value on recombinant human SIRT1 (inferred from two state model) was “lower dissociation constant”. Further, the “Toxicity on 293 cells (in words)” value in the data set on Human 293 is “The results indicate that thiomethyl (BML-230) was the least toxic on 293 cells”. Moreover, the Fat staining result in the data set on C. elegans (24 hours, control 1% v/v DMSO) is recorded as “Significant reduction”.
